Numbers after ± are expanded uncertainties.
Assay: activity coefficient (dimensionless); of the first substance listed, at infinite dilution; xn = mol fraction of the nth substance listed
Conditions: 101 kPa, Liquid, Chromatography, x1 = 0

Row | activity coefficient (338.15 K) | SMILES | activity coefficient (298.15 K) | activity coefficient (301.15 K) | activity coefficient (303.15 K) | activity coefficient (305.15 K) | activity coefficient (308.15 K) | activity coefficient (310.15 K) | activity coefficient (313.15 K) | activity coefficient (315.15 K) | activity coefficient (318.15 K) | activity coefficient (320.15 K) | activity coefficient (323.15 K) | activity coefficient (325.15 K) | activity coefficient (328.15 K) | activity coefficient (330.15 K) | activity coefficient (333.15 K) | activity coefficient (299.15 K) | activity coefficient (306.15 K) | activity coefficient (311.15 K)
1 | – | C=CC=O [2-propenal] + O | 20.9 ± 0.8 | 21.5 ± 0.8 | 21.4 ± 0.8 | 21.7 ± 0.8 | 22.4 ± 0.8 | 22.6 ± 0.8 | 23.1 ± 0.9 | 23.5 ± 0.9 | 24 ± 0.9 | 24.1 ± 0.9 | 24.1 ± 0.9 | 24.3 ± 0.9 | 24.3 ± 0.9 | 24.5 ± 0.9 | 24.4 ± 1 | – | – | –
2 | – | C/C=C/C=O [(E)-2-butenal] + O | 39 ± 1.6 | – | – | – | 42.8 ± 1.6 | – | 44.4 ± 1.8 | – | 46.2 ± 1.9 | – | 47 ± 2.1 | – | 47.3 ± 2 | – | 48 ± 1.9 | – | – | –
3 | 78 ± 3 | CCCCO [butan-1-ol] + O | – | – | 52 ± 3 | – | 57 ± 2 | – | 58 ± 3 | – | 64 ± 3 | – | 69 ± 3 | – | 72 ± 3 | – | 80 ± 3 | – | – | –
4 | – | c1ccoc1 [furan] + O | 415 ± 20 | 403 ± 19 | 397 ± 19 | 394 ± 19 | 372 ± 19 | – | 356 ± 20 | – | – | – | – | – | – | – | – | 412 ± 20 | 380 ± 19 | 366 ± 22
5 | – | CCCCC=O [pentanal] + O | 220 ± 8 | – | 260 ± 10 | – | 276 ± 10 | – | 302 ± 12 | – | 324 ± 12 | – | 339 ± 14 | – | 350 ± 14 | – | – | – | – | –

— the NIST ThermoML archive (doi:10.1016/j.fluid.2015.01.010)
